The values that follow come from publication PMC4281142, “Fomiroid A, a Novel Compound from the Mushroom Fomitopsis nigra, Inhibits NPC1L1-Mediated Cholesterol Uptake via a Mode of Action Distinct from That of Ezetimibe” (PLoS ONE, 2014).

Assay [1] addresses T1, NPC1L1 (rNPC1L1) (Rattus norvegicus, UniProt Q6T3U3).
T1 construct: rat NPC1L1 (GenBank AY437867), membranes from stably expressing HEK293 cells
Description: competitive radioligand binding, [3H]ezetimibe glucuronide, HEK293/rNPC1L1 membranes.

Assay [2] concerns the target T1, NPC1L1 (rNPC1L1). Description: competitive radioligand binding, [3H]ezetimibe glucuronide, HEK293/rNPC1L1 membranes (two-site fit; low-affinity site […]).

The IC50 is the concentration that inhibits the measured activity by half. In the case of `O=C1[C@H](CC[C@H](O)c2ccc(F)cc2)[C@@H](c2ccc(O)cc2)N1c1ccc(F)cc1` [ezetimibe], the IC50 on NPC1L1 (rNPC1L1) [1] stood at 0.332 ± 0.0042 µM.
`CC(C)=CCCC(CO)C1CC(O)C2(C)C3=C(CCC12C)C1(C)CCC(=O)C(C)(C)C1CC3` (centres unmarked) [fomiroid A, 15, 21-dihydroxylanosta-8, 24-dien-3-one]: the IC50 on NPC1L1 (rNPC1L1) [2] turned out to be 4.83 ± 0.2 µM.
